Assay results: US8329904B2, “Azacyclic derivatives” (Hoffmann-La Roche Inc., priority 2009, dated 2012)
pIC50: −log10 of the molar value.

target: T1, human HSL (Homo sapiens, UniProt Q05469); experiment: Human Hormone-Sensitive Lipase (HSL) Enzyme Inhibition Assay; format: biochemical; settings: colorimetric assay, 2,3-dimercapto-1-propanol tributyrate (DMPT) substrate, 37° C. for 20 minutes, absorbance at 405 nm; read-out: HSL hum IC50
T1 construct: overlapping PCR to generate a full length human HSL ORF with a 3′-His6 tag; His6 (C); made in house; host or cells: High 5 insect cells (baculovirus, pFast-BAC)
T1 sequence (Q05469 1-1076): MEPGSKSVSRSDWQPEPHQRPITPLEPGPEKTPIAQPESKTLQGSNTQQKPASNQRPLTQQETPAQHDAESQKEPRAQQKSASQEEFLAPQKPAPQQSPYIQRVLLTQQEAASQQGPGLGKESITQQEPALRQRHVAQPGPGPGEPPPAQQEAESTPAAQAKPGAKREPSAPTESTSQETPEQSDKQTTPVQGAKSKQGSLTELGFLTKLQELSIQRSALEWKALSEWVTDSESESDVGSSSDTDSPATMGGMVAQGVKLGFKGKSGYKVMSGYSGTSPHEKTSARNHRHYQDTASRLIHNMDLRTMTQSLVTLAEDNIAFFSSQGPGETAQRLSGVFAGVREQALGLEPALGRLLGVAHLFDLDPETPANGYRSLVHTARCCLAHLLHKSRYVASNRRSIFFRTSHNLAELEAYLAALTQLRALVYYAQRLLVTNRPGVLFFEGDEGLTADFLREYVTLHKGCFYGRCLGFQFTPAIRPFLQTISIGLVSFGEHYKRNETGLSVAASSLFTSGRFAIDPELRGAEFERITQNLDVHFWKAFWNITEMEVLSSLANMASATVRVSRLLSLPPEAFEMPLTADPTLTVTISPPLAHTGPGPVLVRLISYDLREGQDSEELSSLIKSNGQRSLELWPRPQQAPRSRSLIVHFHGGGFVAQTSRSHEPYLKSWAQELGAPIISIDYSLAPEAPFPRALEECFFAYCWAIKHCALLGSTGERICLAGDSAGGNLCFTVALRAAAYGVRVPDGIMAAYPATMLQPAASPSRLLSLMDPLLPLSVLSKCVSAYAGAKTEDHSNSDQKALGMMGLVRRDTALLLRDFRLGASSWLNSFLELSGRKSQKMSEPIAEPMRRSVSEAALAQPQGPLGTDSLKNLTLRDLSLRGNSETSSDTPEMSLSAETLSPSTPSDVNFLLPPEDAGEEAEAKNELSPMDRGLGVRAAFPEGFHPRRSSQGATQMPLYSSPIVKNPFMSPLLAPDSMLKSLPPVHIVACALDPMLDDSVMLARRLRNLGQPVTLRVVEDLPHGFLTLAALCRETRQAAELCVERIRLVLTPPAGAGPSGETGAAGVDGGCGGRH
Summary of the method: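 Colorimetric thioester hydrolysis: compounds in DMSO series mixed with DMPT (1.5 mM) in MOPS pH 7.2 with BSA, then baculovirus-expressed His6-tagged full-length human HSL added, 37° C, 20 min. DTNB plus detergents added, 15 min room temperature, absorbance at 405 nm.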

SMILES	pIC50
O=C1N(c2ccc(OC(F)(F)F)cc2)CCC12CCN(S(=O)(=O)c1cccs1)CC2 [Example 28, 8-(Thiophene-2-sulfonyl)-2-(4-trifluoromethoxy-phenyl)-2,8-diaza-spiro[4.5]decan-1-one]	7.40
CC(C)(C)CC(=O)N1CCC2(CC1)CCN(c1ccc(C3CC3)cc1)C2=O [Example 35, 2-(4-Cyclopropyl-phenyl)-8-(3,3-dimethyl-butyryl)-2,8-diaza-spiro[4.5]decan-1-one]	6.77
O=C1N(c2ccc(OCC(F)(F)F)cc2)CCC12CCN(S(=O)(=O)c1ccccc1Cl)CC2 [Example 115, 8-(2-Chloro-benzenesulfonyl)-2-[4-(2,2,2-trifluoro-ethoxy)-phenyl]-2,8-diaza-spiro[4.5]decan-1-one]	7.52
Cc1ccc(S(=O)(=O)N2CCC3(CCN(c4ccc(OC(F)(F)F)cc4)C3=O)CC2)s1 [Example 42, 8-(5-Methyl-thiophene-2-sulfonyl)-2-(4-trifluoromethoxy-phenyl)-2,8-diaza-spiro[4.5]decan-1-one]	7.40
O=C1N(c2ccc(C3CC3)cc2)CCC12CCN(S(=O)(=O)Cc1ccccc1)CC2 [Example 38, 2-(4-Cyclopropyl-phenyl)-8-phenylmethanesulfonyl-2,8-diaza-spiro[4.5]decan-1-one]	7.22
CCc1ccc(N2CCC3(CCN(C(=O)CC(C)(C)C)CC3)C2=O)cc1 [Example 20, 8-(3,3-Dimethyl-butyryl)-2-(4-ethyl-phenyl)-2,8-diaza-spiro[4.5]decan-1-one]	6.62
CSc1ccc(N2CCC3(CCN(S(=O)(=O)c4ccccc4Cl)CC3)C2=O)cc1 [Example 34, 8-(2-Chloro-benzenesulfonyl)-2-(4-methylsulfanyl-phenyl)-2,8-diaza-spiro[4.5]decan-1-one]	7.00
CCn1cc2cc(N3CCC4(CCN(S(=O)(=O)c5ccccc5Cl)CC4)C3=O)ccc2n1 [Example 124, 8-(2-Chloro-benzenesulfonyl)-2-(2-ethyl-2H-indazol-5-yl)-2,8-diaza-spiro[4.5]decan-1-one]	7.22

Further lines, results first:

pIC50	SMILES
6.55	O=C(N1CCC2(CC1)CCN(c1ccc(OC(F)(F)F)cc1)C2=O)C1(O)CC1 [Example 219, 8-(1-Hydroxy-cyclopropanecarbonyl)-2-(4-trifluoromethoxy-phenyl)-2,8-diaza-spiro[4.5]decan-1-one]
6.64	O=C1N(c2ccc(OC(F)(F)F)cc2)CCC12CCN(S(=O)(=O)c1cccnc1O)CC2 [Example 196, 8-(2-Hydroxy-pyridine-3-sulfonyl)-2-(4-trifluoromethoxy-phenyl)-2,8-diaza-spiro[4.5]decan-1-one]
7.70	O=C1N(c2ccc(C3(O)CCC3)cc2)CCC12CCN(S(=O)(=O)c1ccccc1Cl)CC2 [Example 231, 8-(2-Chloro-benzenesulfonyl)-2-[4-(1-hydroxy-cyclobutyl)-phenyl]-2,8-diaza-spiro[4.5]decan-1-one]
6.74	CCc1ccc(N2CCC3(CCN(C(=O)N4CCCCC4)CC3)C2=O)cc1 [Example 255, 2-(4-Ethyl-phenyl)-8-(piperidine-1-carbonyl)-2,8-diaza-spiro[4.5]decan-1-one]
6.96	CCC(C(=O)N1CCC2(CC1)CCN(c1ccc(OC(F)(F)F)cc1)C2=O)c1ccccc1 (stereo not drawn) [Example 223, 8-(2-Phenyl-butyryl)-2-(4-trifluoromethoxy-phenyl)-2,8-diaza-spiro[4.5]decan-1-one]
6.82	O=C1N(c2ccc(OC(F)(F)F)cc2)CCC12CCN(S(=O)(=O)/C=C1/CCCO1)CC2 [Example 213, 8-[Dihydro-furan-(2Z)-ylidenemethanesulfonyl]-2-(4-trifluoromethoxy-phenyl)-2,8-diaza-spiro[4.5]decan-1-one]
6.77	CCN(Cc1ccccc1)C(=O)N1CCC2(CC1)CCN(c1ccc(OC(F)(F)F)cc1)C2=O [Example 310, 1-Oxo-2-(4-trifluoromethoxy-phenyl)-2,8-diaza-spiro[4.5]decane-8-carboxylic acid benzyl-ethyl-amide]
